Results published in US12052991B2, “Substituted pyridinyloxybenzenes and salts thereof and use thereof as herbicidal agents” (Bayer Aktiengesellschaft, priority 2018, dated 2024).

What was measured:
Format in all cases: in vivo
[1] = tested on: Echinochloa crus-galli (ECHCG); assay: Herbicidal post-emergence action (Table B1); conditions: rated visually after about 3 weeks, 100% = plants have died, 0% = like control plants
Summary of the method: (§1)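 Weeds grown from seed in sandy loam in the greenhouse were sprayed at the one-leaf stage, 2 to 3 weeks after sowing, with WP or EC formulations in water plus 0.5% additive at 600 L/ha. Rates corresponded to 1280 or 320 g/ha; damage was rated visually versus untreated controls after about 3 weeks.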

Lolium rigidum (LOLRI) [2] = assay: Herbicidal post-emergence action (Table B2); conditions: rated visually after about 3 weeks, 100% = plants have died, 0% = like control plants
Summary of the method: as §1

Poa annua (POAAN) [3] = assay: Herbicidal post-emergence action (Table B3); conditions: rated visually after about 3 weeks, 100% = plants have died, 0% = like control plants
Summary of the method: as §1

Setaria viridis (SETVI) [4] = assay: Herbicidal post-emergence action (Table B4); conditions: rated visually after about 3 weeks, 100% = plants have died, 0% = like control plants
Summary of the method: as §1

[5] = tested on: Abutilon theophrasti (ABUTH); assay: Herbicidal post-emergence action (Table B5); conditions: rated visually after about 3 weeks, 100% = plants have died, 0% = like control plants
Summary of the method: as §1

[6] = tested on: Amaranthus retroflexus (AMARE); assay: Herbicidal post-emergence action (Table B6); conditions: visual rating about 3 weeks after treatment, 100% = plants have died, 0% = like control plants
Summary of the method: as §1

Stellaria media (STEME) [7] = assay: Herbicidal post-emergence action (Table B8); conditions: visual rating about 3 weeks after treatment, 100% = plants have died, 0% = like control plants
Summary of the method: as §1

[8] = tested on: Echinochloa crus-galli (ECHCG); assay: Herbicidal pre-emergence action, test C (Table C1); conditions: visual scoring after about 3 weeks, 100% = plants have died, 0% = like control plants
Summary of the method: (§2)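 Sandy loam, doubly sown pots; surface spray pre-emergence; 1280 or 320 g/ha; 0.5% additive; 600 L/ha. Greenhouse, ~3 weeks. Visual % vs untreated.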

Lolium rigidum (LOLRI) [9] = assay: Herbicidal pre-emergence action, test C (Table C2); conditions: visual scoring after about 3 weeks, 100% = plants have died, 0% = like control plants
Summary of the method: as §2

Poa annua (POAAN) [10] = assay: Herbicidal pre-emergence action, test C (Table C3); conditions: visual scoring after about 3 weeks, 100% = plants have died, 0% = like control plants
Summary of the method: as §2

Setaria viridis (SETVI) [11] = assay: Herbicidal pre-emergence action, test C (Table C4); conditions: visual scoring after about 3 weeks, 100% = plants have died, 0% = like control plants
Summary of the method: as §2

[12] = tested on: Abutilon theophrasti (ABUTH); assay: Herbicidal pre-emergence action, test C (Table C5); conditions: visual scoring after about 3 weeks, 100% = plants have died, 0% = like control plants
Summary of the method: as §2

[13] = tested on: Amaranthus retroflexus (AMARE); assay: Herbicidal pre-emergence action, test C (Table C6); conditions: visual scoring after about 3 weeks, 100% = plants have died, 0% = like control plants
Summary of the method: as §2

Stellaria media (STEME) [14] = assay: Herbicidal pre-emergence action, test C (Table C8); conditions: visual scoring after about 3 weeks, 100% = plants have died, 0% = like control plants
Summary of the method: as §2

[15] = tested on: harmful plants ABUTH, AMARE, ECHCG, LOLRI, MATIN, POAAN, SETVI, STEME, ALOMY, DIGSA, KCHSC and VERPE; assay: Herbicidal post-emergence action, summary of Tables B1-B12; conditions: application rate of 1280 or 320 g of active ingredient per hectare; summary in words
Summary of the method: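 Greenhouse weeds in sandy loam treated post-emergence at the one-leaf stage, 2–3 weeks after sowing, with WP or EC formulations sprayed with 0.5% additive at 600 L/ha water, 1280 or 320 g/ha. Damage rated visually after about 3 weeks versus untreated controls (0% = like control, 100% = dead).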

[16] = tested on: harmful plants ABUTH, AMARE, ECHCG, LOLRI, MATIN, POAAN, SETVI, STEME, ALOMY, DIGSA, KCHSC and VERPE; assay: Herbicidal pre-emergence action (test C), summary of Tables C1-C12; conditions: application rate of 1280 or 320 g of active ingredient per hectare; summary in words
Summary of the method: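 Pre-emergence pot test in sandy loam: WP or EC formulations were sprayed onto the covering soil with 0.5% additive at 600 L/ha water, at 1280 or 320 g/ha. Plants were kept in the greenhouse, and activity was rated visually about 3 weeks later as % versus untreated controls (100% = dead).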

| SMILES | Post-emergence action against Echinochloa crus-galli (ECHCG) ([1]; 320 g/ha) [%] | Post-emergence action against Echinochloa crus-galli (ECHCG) ([1]; 1280 g/ha) [%] | Post-emergence action against Lolium rigidum (LOLRI) (Lolium rigidum (LOLRI) [2]; 320 g/ha) [%] | Post-emergence action against Lolium rigidum (LOLRI) (Lolium rigidum (LOLRI) [2]; 1280 g/ha) [%] | Post-emergence action against Poa annua (POAAN) (Poa annua (POAAN) [3]; 320 g/ha) [%] | Post-emergence action against Poa annua (POAAN) (Poa annua (POAAN) [3]; 1280 g/ha) [%] | Post-emergence action against Setaria viridis (SETVI) (Setaria viridis (SETVI) [4]; 320 g/ha) [%] | Post-emergence action against Setaria viridis (SETVI) (Setaria viridis (SETVI) [4]; 1280 g/ha) [%] | Post-emergence action against Abutilon theophrasti (ABUTH) ([5]; 320 g/ha) [%] | Post-emergence action against Abutilon theophrasti (ABUTH) ([5]; 1280 g/ha) [%] | Post-emergence action against Amaranthus retroflexus (AMARE) ([6]; dosage 320 g/ha) [%] | Post-emergence action against Amaranthus retroflexus (AMARE) ([6]; dosage 1280 g/ha) [%] | Post-emergence action against Stellaria media (STEME) (Stellaria media (STEME) [7]; dosage 320 g/ha) [%] | Post-emergence action against Stellaria media (STEME) (Stellaria media (STEME) [7]; dosage 1280 g/ha) [%] | Pre-emergence action against Echinochloa crus-galli (ECHCG) ([8]; dosage 320 g/ha) [%] | Pre-emergence action against Echinochloa crus-galli (ECHCG) ([8]; dosage 1280 g/ha) [%] | Pre-emergence action against Lolium rigidum (LOLRI) (Lolium rigidum (LOLRI) [9]; dosage 1280 g/ha) [%] | Pre-emergence action against Poa annua (POAAN) (Poa annua (POAAN) [10]; dosage 320 g/ha) [%] | Pre-emergence action against Poa annua (POAAN) (Poa annua (POAAN) [10]; dosage 1280 g/ha) [%] | Pre-emergence action against Setaria viridis (SETVI) (Setaria viridis (SETVI) [11]; dosage 320 g/ha) [%] | also measured |
| --- | --- | --- | --- | --- | --- | --- | --- | --- | --- | --- | --- | --- | --- | --- | --- | --- | --- | --- | --- | --- | --- |
| Cc1cccc(Oc2ccc(Cl)cn2)c1-c1cc(C(F)F)no1 [Example 1-18, 5-[2-[(5-Chloro-2-pyridyl)oxy]-6-methylphenyl]-3-(difluoromethyl)isoxazole] | 100 | 100 | 90 | 100 | 100 | 100 | 100 | 100 | 100 | 100 | 100 | 100 | 100 | 100 | 90 | 100 | 90 | 90 | 100 | 100 | Pre-emergence action against Setaria viridis (SETVI) (Setaria viridis (SETVI) [11]; dosage 1280 g/ha): 100%; Pre-emergence action against Abutilon theophrasti (ABUTH) ([12]; dosage 320 g/ha): 100%; Pre-emergence action against Abutilon theophrasti (ABUTH) ([12]; dosage 1280 g/ha): 100%; Pre-emergence action against Amaranthus retroflexus (AMARE) ([13]; dosage 320 g/ha): 100%; Pre-emergence action against Amaranthus retroflexus (AMARE) ([13]; dosage 1280 g/ha): 100%; Pre-emergence action against Stellaria media (STEME) (Stellaria media (STEME) [14]; dosage 320 g/ha): 100%; Pre-emergence action against Stellaria media (STEME) (Stellaria media (STEME) [14]; dosage 1280 g/ha): 100%; herbicidal activity against the harmful plants of Tables B1-B12 in post-emergence treatment [15]: very good herbicidal activity; herbicidal activity against the harmful plants of Tables C1-C12 in pre-emergence treatment [16]: very good herbicidal activity |
| Fc1cccc(Oc2ccc(Br)cn2)c1-c1cc(C(F)F)no1 [Example 1-40] | 100 | 100 | 100 | 100 | 100 | 100 | 100 | 100 | 100 | 100 | 100 | 100 | 100 | 100 | 100 | 100 | 100 | 100 | 100 | 100 | Pre-emergence action against Lolium rigidum (LOLRI) (Lolium rigidum (LOLRI) [9]; dosage 320 g/ha): 90%; Pre-emergence action against Setaria viridis (SETVI) (Setaria viridis (SETVI) [11]; dosage 1280 g/ha): 100%; Pre-emergence action against Abutilon theophrasti (ABUTH) ([12]; dosage 320 g/ha): 100%; Pre-emergence action against Abutilon theophrasti (ABUTH) ([12]; dosage 1280 g/ha): 100%; Pre-emergence action against Amaranthus retroflexus (AMARE) ([13]; dosage 320 g/ha): 100%; Pre-emergence action against Amaranthus retroflexus (AMARE) ([13]; dosage 1280 g/ha): 100%; Pre-emergence action against Stellaria media (STEME) (Stellaria media (STEME) [14]; dosage 320 g/ha): 100%; Pre-emergence action against Stellaria media (STEME) (Stellaria media (STEME) [14]; dosage 1280 g/ha): 100%; herbicidal activity against the harmful plants of Tables B1-B12 in post-emergence treatment [15]: very good herbicidal activity; herbicidal activity against the harmful plants of Tables C1-C12 in pre-emergence treatment [16]: very good herbicidal activity |
